Values of other authors as cited in US20040116514A1, “Compositions for preventing human cancer and method of preventing human cancer” (priority 2002, published 2004).

System: humans
Settings: β-carotene alone administered in large quantities to humans (Omenn et al., 1996)

SMILES: CC1=C(/C=C/C(C)=C/C=C/C(C)=C/C=C/C=C(C)/C=C/C=C(C)/C=C/C2=C(C)CCCC2(C)C)C(C)(C)CCC1 [β-carotene]
- incidence rate of pulmonary cancer: actually rises
